Measurements taken from patent US10681909B2, “Herbicidal triazoles” (FMC Corporation, priority 2014, dated 2020).

What was measured:
barnyardgrass [1] = test: Test A postemergence; assay type: in vivo, Echinochloa crus-galli; conditions: Echinochloa crus-galli, post-emergence, 240 h, 0 to 100 scale (0 no effect, 100 complete control), approx. 10 d, read-out: Plant response rating, Barnyardgrass
How it was run: (§1)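 For preemergence, seeds were sown in a loam soil-sand blend and given a directed soil spray of test chemical in a non-phytotoxic solvent mixture with surfactant. For postemergence, plants in pots of the same blend were sprayed with the same formulation at the one- to two-leaf stage, 2 to 10 cm tall.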

morningglory = test: Test C postemergence; assay type: in vivo, Ipomoea coccinea
Text: (§2) Seeds of plant species selected from blackgrass (Alopecurus myosuroides), ryegrass, Italian (Italian ryegrass, Lolium multiflorum), wheat (winter wheat, Triticum aestivum), galium (catchweed bedstraw, Galium aparine), corn (Zea mays), crabgrass, large (large crabgrass, Digitaria sanguinalis), foxtail, giant, (giant foxtail, Setaria faberii), johnsongrass (Sorghum halepense), lambsquarters (Chenopodium album), morningglory (Ipomoea coccinea), nutsedge, yellow (yellow nutsedge, Cyperus esculentus), pigweed (Amaranthus retroflexus), ragweed (common ragweed, Ambrosia elatior), soybean (Glycine max), barnyardgrass (Echinochloa crus-galli), oilseed rape (Brassica napus), waterhemp (common waterhemp, Amaranthus rudis), and velvetleaf (Abutilon theophrasti) were planted into a blend of loam soil and sand and treated preemergence with test chemicals formulated in a non-phytotoxic solvent mixture which included a surfactant. At the same time, plants selected from these crop and weed species and also chickweed (common chickweed, Stellaria media), oat, wild (wild oat, Avena fatua), and kochia (Kochia scoparia), were planted in pots containing Sunshine Redi-Earth® planting medium comprising spaghnum peat moss, vermiculite, starter nutrients and dolomitic limestone and treated with postemergence applications of test chemicals formulated in the same manner. Plants ranged in height from 2 to 18 cm (1- to 4-leaf stage) for postemergence treatments. […] A dash (-) response means no test result.

barnyardgrass [2] = test: Test B flooded paddy test; assay type: in vivo, Echinochloa crus-galli; conditions: Echinochloa crus-galli, 360 h, 125 g ai/ha, applied to paddy water at 2-leaf stage, visual rating after 13 to 15 d, scale 0 (no effect) to 100 (complete control), read-out: Plant response rating, Barnyardgrass, Flood
How it was run: (§3)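 Pots were flooded to 3 cm above the soil at treatment, and compounds were applied directly into the paddy water. That depth was held throughout. After 13 to 15 d in a greenhouse, plants were rated visually against untreated controls.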

crabgrass, large = test: Test C postemergence; assay type: in vivo, Digitaria sanguinalis
Text: as §2

foxtail, giant [3] = test: Test A postemergence; assay type: in vivo, Setaria faberii; conditions: Setaria faberi, post-emergence, 240 h, 0 to 100 scale (0 no effect, 100 complete control), approx. 10 d, read-out: Plant response rating, Foxtail, Giant
How it was run: as §1

foxtail, giant [4] = test: Test C postemergence; assay type: in vivo, Setaria faberii
Text: as §2

corn [5] = test: Test A postemergence; assay type: in vivo, Zea mays; conditions: Zea mays, post-emergence, 240 h, 0 to 100 scale (0 no effect, 100 complete control), approx. 10 d
How it was run: as §1

ragweed = test: Test C postemergence; assay type: in vivo, Ambrosia elatior
Text: as §2

oilseed rape = test: Test C postemergence; assay type: in vivo, Brassica napus
Text: as §2

corn [6] = test: Test C postemergence; assay type: in vivo, Zea mays
Text: as §2

nutsedge, yellow = test: Test C postemergence; assay type: in vivo, Cyperus esculentus
Text: as §2

wheat = test: Test A postemergence; assay type: in vivo, Triticum aestivum; conditions: Triticum aestivum, post-emergence, 240 h, 0 to 100 scale (0 no effect, 100 complete control), approx. 10 d, read-out: Plant response rating, Wheat
How it was run: as §1

kochia = test: Test C postemergence; assay type: in vivo, Kochia scoparia
Text: as §2

barnyardgrass [7] = test: Test A preemergence; assay type: in vivo, Echinochloa crus-galli; conditions: Echinochloa crus-galli, pre-emergence, 240 h, 0 to 100 scale (0 no effect, 100 complete control), read-out: Plant response rating, Barnyardgrass
How it was run: as §1

sedge, umbrella = test: Test B flooded paddy test; assay type: in vivo, Cyperus difformis; conditions: Cyperus difformis, 360 h, 125 g ai/ha, applied to paddy water at 2-leaf stage, visual rating after 13 to 15 d, scale 0 (no effect) to 100 (complete control), read-out: Plant response rating, Sedge, Umbrella, Flood
How it was run: as §3

barnyardgrass [8] = test: Test C postemergence; assay type: in vivo, Echinochloa crus-galli
Text: as §2

pigweed = test: Test A postemergence; assay type: in vivo, Amaranthus retroflexus; conditions: Amaranthus retroflexus, post-emergence, 240 h, 0 to 100 scale (0 no effect, 100 complete control), approx. 10 d, read-out: Plant response rating, Pigweed
How it was run: as §1

ryegrass, Italian = test: Test C postemergence; assay type: in vivo, Lolium multiflorum
Text: as §2

waterhemp = test: Test C postemergence; assay type: in vivo, Amaranthus rudis
Text: as §2

velvetleaf = test: Test C postemergence; assay type: in vivo, Abutilon theophrasti
Text: as §2

ducksalad = test: Test B flooded paddy test; assay type: in vivo, Heteranthera limosa; conditions: Heteranthera limosa, 360 h, 125 g ai/ha, applied to paddy water at 2-leaf stage, visual rating after 13 to 15 d, scale 0 (no effect) to 100 (complete control), read-out: Plant response rating, Ducksalad, Flood
How it was run: as §3

CCc1nc(-c2ccc(C(F)(F)F)cc2)nn1Cc1ccnc(C(F)(F)F)c1 [Compound 1, 4-[[5-ethyl-3-[4-(trifluoromethyl)phenyl]-1H-1,2,4-triazol-1-yl]methyl]-2-(trifluoromethyl)pyridine]
pest or weed control at 125 g/ha (barnyardgrass [1]; 125 g ai/ha): 80%
pest or weed control at 500 g/ha (barnyardgrass [1]; 500 g ai/ha): 90%
Plant response rating (scale of 0 to 100 where 0 is no effect and 100 is complete control) (morningglory; 31 g ai/ha): 60
Plant response rating (scale of 0 to 100 where 0 is no effect and 100 is complete control) (morningglory; 62 g ai/ha): 70
Plant response rating (scale of 0 to 100 where 0 is no effect and 100 is complete control) (morningglory; 125 g ai/ha): 70
Plant response rating (scale of 0 to 100 where 0 is no effect and 100 is complete control) (morningglory; 250 g ai/ha): 95
pest or weed control at 125 g/ha (barnyardgrass [2]): 40%
Plant response rating (scale of 0 to 100 where 0 is no effect and 100 is complete control) (crabgrass, large; 31 g ai/ha): 5
Plant response rating (scale of 0 to 100 where 0 is no effect and 100 is complete control) (crabgrass, large; 62 g ai/ha): 5
Plant response rating (scale of 0 to 100 where 0 is no effect and 100 is complete control) (crabgrass, large; 125 g ai/ha): 45
Plant response rating (scale of 0 to 100 where 0 is no effect and 100 is complete control) (crabgrass, large; 250 g ai/ha): 45
pest or weed control at 125 g/ha (foxtail, giant [3]; 125 g ai/ha): 90%
pest or weed control at 500 g/ha (foxtail, giant [3]; 500 g ai/ha): 100%
Plant response rating (scale of 0 to 100 where 0 is no effect and 100 is complete control) (foxtail, giant [4]; 31 g ai/ha): 35
Plant response rating (scale of 0 to 100 where 0 is no effect and 100 is complete control) (foxtail, giant [4]; 62 g ai/ha): 35
Plant response rating (scale of 0 to 100 where 0 is no effect and 100 is complete control) (foxtail, giant [4]; 125 g ai/ha): 55
Plant response rating (scale of 0 to 100 where 0 is no effect and 100 is complete control) (foxtail, giant [4]; 250 g ai/ha): 55
Corn plant response rating (crop injury, 0 = no effect, 100 = complete kill) at 125 g/ha (corn [5]; 125 g ai/ha): 30%
Corn plant response rating (crop injury, 0 = no effect, 100 = complete kill) at 500 g/ha (corn [5]; 500 g ai/ha): 80%
Plant response rating (scale of 0 to 100 where 0 is no effect and 100 is complete control) (ragweed; 31 g ai/ha): 60
Plant response rating (scale of 0 to 100 where 0 is no effect and 100 is complete control) (ragweed; 62 g ai/ha): 70
Plant response rating (scale of 0 to 100 where 0 is no effect and 100 is complete control) (ragweed; 125 g ai/ha): 75
Plant response rating (scale of 0 to 100 where 0 is no effect and 100 is complete control) (ragweed; 250 g ai/ha): 80
Plant response rating (scale of 0 to 100 where 0 is no effect and 100 is complete control) (oilseed rape; Oilsee Rape, 250 g ai/ha): 90
Plant response rating (scale of 0 to 100 where 0 is no effect and 100 is complete control) (oilseed rape; Oilseed Rape, 31 g ai/ha): 50
Plant response rating (scale of 0 to 100 where 0 is no effect and 100 is complete control) (oilseed rape; Oilseed Rape, 62 g ai/ha): 70
Plant response rating (scale of 0 to 100 where 0 is no effect and 100 is complete control) (oilseed rape; Oilseed Rape, 125 g ai/ha): 80
Plant response rating (scale of 0 to 100 where 0 is no effect and 100 is complete control) (corn [6]; 31 g ai/ha): 15
Plant response rating (scale of 0 to 100 where 0 is no effect and 100 is complete control) (corn [6]; 62 g ai/ha): 15
Plant response rating (scale of 0 to 100 where 0 is no effect and 100 is complete control) (corn [6]; 125 g ai/ha): 20
Plant response rating (scale of 0 to 100 where 0 is no effect and 100 is complete control) (corn [6]; 250 g ai/ha): 20
Plant response rating (scale of 0 to 100 where 0 is no effect and 100 is complete control) (nutsedge, yellow; 31 g ai/ha): 5
Plant response rating (scale of 0 to 100 where 0 is no effect and 100 is complete control) (nutsedge, yellow; 62 g ai/ha): 5
Plant response rating (scale of 0 to 100 where 0 is no effect and 100 is complete control) (nutsedge, yellow; 125 g ai/ha): 5
Plant response rating (scale of 0 to 100 where 0 is no effect and 100 is complete control) (nutsedge, yellow; 250 g ai/ha): 10
plant injury at 125 g/ha (wheat; 125 g ai/ha): 30%
plant injury at 500 g/ha (wheat; 500 g ai/ha): 60%
Plant response rating (scale of 0 to 100 where 0 is no effect and 100 is complete control) (kochia; 31 g ai/ha): 85
Plant response rating (scale of 0 to 100 where 0 is no effect and 100 is complete control) (kochia; 62 g ai/ha): 85
Plant response rating (scale of 0 to 100 where 0 is no effect and 100 is complete control) (kochia; 125 g ai/ha): 90
Plant response rating (scale of 0 to 100 where 0 is no effect and 100 is complete control) (kochia; 250 g ai/ha): 90
pest or weed control at 125 g/ha (barnyardgrass [7]; 125 g ai/ha): 80%
pest or weed control at 500 g/ha (barnyardgrass [7]; 500 g ai/ha, approx. 10 d): 90%
pest or weed control at 125 g/ha (sedge, umbrella): 75%
Plant response rating (scale of 0 to 100 where 0 is no effect and 100 is complete control) (barnyardgrass [8]; 31 g ai/ha): 10
Plant response rating (scale of 0 to 100 where 0 is no effect and 100 is complete control) (barnyardgrass [8]; 62 g ai/ha): 15
Plant response rating (scale of 0 to 100 where 0 is no effect and 100 is complete control) (barnyardgrass [8]; 125 g ai/ha): 15
Plant response rating (scale of 0 to 100 where 0 is no effect and 100 is complete control) (barnyardgrass [8]; 250 g ai/ha): 50
pest or weed control at 125 g/ha (pigweed; 125 g ai/ha): 100%
pest or weed control at 500 g/ha (pigweed; 500 g ai/ha): 100%
Plant response rating (scale of 0 to 100 where 0 is no effect and 100 is complete control) (ryegrass, Italian; 31 g ai/ha): 5
Plant response rating (scale of 0 to 100 where 0 is no effect and 100 is complete control) (ryegrass, Italian; 62 g ai/ha): 5
Plant response rating (scale of 0 to 100 where 0 is no effect and 100 is complete control) (ryegrass, Italian; 125 g ai/ha): 5
Plant response rating (scale of 0 to 100 where 0 is no effect and 100 is complete control) (ryegrass, Italian; 250 g ai/ha): 5
Plant response rating (scale of 0 to 100 where 0 is no effect and 100 is complete control) (waterhemp; 31 g ai/ha): 85
Plant response rating (scale of 0 to 100 where 0 is no effect and 100 is complete control) (waterhemp; 62 g ai/ha): 85
Plant response rating (scale of 0 to 100 where 0 is no effect and 100 is complete control) (waterhemp; 125 g ai/ha): 90
Plant response rating (scale of 0 to 100 where 0 is no effect and 100 is complete control) (waterhemp; 250 g ai/ha): 90
Plant response rating (scale of 0 to 100 where 0 is no effect and 100 is complete control) (velvetleaf; 31 g ai/ha): 40
Plant response rating (scale of 0 to 100 where 0 is no effect and 100 is complete control) (velvetleaf; 62 g ai/ha): 55
Plant response rating (scale of 0 to 100 where 0 is no effect and 100 is complete control) (velvetleaf; 125 g ai/ha): 60
Plant response rating (scale of 0 to 100 where 0 is no effect and 100 is complete control) (velvetleaf; 250 g ai/ha): 75
pest or weed control at 125 g/ha (ducksalad): 20%
